Data on 21 molecules can be found in US10183939B2, “Fused bicyclic (hetero)aromatic compounds useful for the treatment of cancers” (Redx Pharma PLC, priority 2014, dated 2019).

Assay [1] has as its target C-RAF Y340D/Y341D kinase (Homo sapiens (Human), UniProt P04049, Y340D/Y341D). Nature of the assay: LanthaScreen Eu kinase binding assay (C-RAF). The settings on record: tracer 178 competition, 5 hours.
Method: LanthaScreen™ Eu kinase binding assay
To determine whether compounds bind to RAF kinases, they are tested in a competition binding assay. The Invitrogen LanthaScreen™ Eu binding assay involves the binding of an Alexa-Fluor® 647-labelled, ATP-competitive kinase tracer to the kinase of interest. A Europium-labelled anti-tag antibody also binds to the kinase of interest. Simultaneous binding of the tracer and the antibody brings them into close proximity and upon excitation at 340 nm, triggers fluorescence resonance energy transfer (FRET) between the Europium donor fluorophore on the antibody and the Alexa Fluor® 647 acceptor on the tracer. The dual emission signal produced can be measured at 665 and 615 nm.
(§1) Compounds at a concentration of 3 mM are serially diluted (e.g. 10 μl 90 μl of 100% dimethyl sulfoxide (DMSO)) seven times in 96-well plates for a total of 8 dilution points. Each DMSO dilution is further diluted 1:100 in kinase buffer (e.g. 5 μl into 495 μl kinase buffer) containing 50 mM HEPES pH 7.5, 10 mM MgCl2, 1 mM EGTA, 0.01% Brij-35.
(§2) The plates are incubated for 5 hours at room temperature and read on an EnVision plate reader (Perkin Elmer).
All data are analysed using the GraphPad Prism software package. Inhibition of tracer binding to the kinase of interest is assessed by determination of IC50 value, which is defined as the concentration of compound which decreased the level of FRET signal measured at 665 nm by 50%.
Assay [2] deals with B-RAF^V600E kinase (Homo sapiens (Human), UniProt P15056, V600E). Nature of the assay: LanthaScreen Eu kinase binding assay (B-RAF V600E). The settings on record: tracer 178 competition, 5 hours.
Sequence of B-RAF^V600E kinase (P15056 whole entry V600E): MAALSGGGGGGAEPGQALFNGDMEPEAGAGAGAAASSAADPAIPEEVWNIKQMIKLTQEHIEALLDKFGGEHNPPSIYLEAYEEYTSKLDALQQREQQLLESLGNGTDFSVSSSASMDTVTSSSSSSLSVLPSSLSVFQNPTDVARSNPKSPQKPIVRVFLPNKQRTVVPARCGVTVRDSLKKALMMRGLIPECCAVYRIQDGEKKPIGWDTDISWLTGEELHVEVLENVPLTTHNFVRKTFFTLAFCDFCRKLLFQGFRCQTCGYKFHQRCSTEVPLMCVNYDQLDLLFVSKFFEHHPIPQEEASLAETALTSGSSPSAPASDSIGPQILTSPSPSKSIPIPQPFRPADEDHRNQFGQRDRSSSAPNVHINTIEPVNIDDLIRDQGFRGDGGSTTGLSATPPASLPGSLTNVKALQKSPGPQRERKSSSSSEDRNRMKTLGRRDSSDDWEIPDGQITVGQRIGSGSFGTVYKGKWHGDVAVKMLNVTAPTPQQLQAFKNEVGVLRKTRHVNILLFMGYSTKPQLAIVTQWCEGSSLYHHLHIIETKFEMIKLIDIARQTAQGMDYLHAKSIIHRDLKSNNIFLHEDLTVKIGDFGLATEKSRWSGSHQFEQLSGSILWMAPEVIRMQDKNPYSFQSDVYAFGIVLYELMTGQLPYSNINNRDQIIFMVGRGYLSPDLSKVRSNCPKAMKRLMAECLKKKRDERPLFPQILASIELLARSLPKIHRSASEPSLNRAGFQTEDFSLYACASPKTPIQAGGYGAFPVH
Method: LanthaScreen™ Eu kinase binding assay
To determine whether compounds bind to RAF kinases, they are tested in a competition binding assay. […] A Europium-labelled anti-tag antibody also binds to the kinase of interest.
as §1, §2
(§3) All data are analysed using the GraphPad Prism software package.
Assay [3] concerns C-RAF-mediated ERK activation in B-RAF^WT IPC-298 cells (NRAS^Q61L). Nature of the assay: IPC-298 AlphaScreen SureFire pERK1/2 cellular assay. It counts as cell-based, human. The settings on record: 1 hour treatment, relative to reference compound Dabrafenib.
Method: On day 2, compounds at a concentration of 6 mM are serially diluted 5 μl into 45 μl of 100% dimethyl sulfoxide (DMSO) six times in 96-well plates for a total of 7 dilution points. […] The cells are treated for 1 hour at 37° C. in 5% CO2. The treatment is then removed and the cells are incubated with lysis buffer containing phosphatase inhibitors for 10 minutes at room temperature with gentle shaking. […] The biotinylated antibody binds to the streptavidin-coated donor beads and the phopsho-ERK1/2 antibody binds to the acceptor beads. Plates are read on an EnVision reader (Perkin Elmer) and excitation of the beads at 680 nm with a laser induces the release of singlet oxygen molecules from the donor beads that triggers energy transfer to the acceptor beads in close proximity, producing a signal that can be measured at 570 nm. Both antibodies bind to phosphorylated ERK proteins, bringing the donor and acceptor beads into close proximity.
All data are analysed using the GraphPad Prism software package. Activation of ERK phosphorylation is expressed as a percentage of activation relative to the reference compound, Dabrafenib.
Assay [4] relates to ERK phosphorylation in A375 cells (B-RAF^V600E). Nature of the assay: A375 AlphaScreen SureFire pERK1/2 cellular assay. It counts as cell-based. The settings on record: Homo sapiens, A-375, 0.5 h, 30 minutes treatment.
Method: On day 2, compounds at a concentration of 6 mM are serially diluted 10 μl into 90 μl of 100% dimethyl sulfoxide (DMSO) six times in 96-well plates for a total of 7 dilution points. Each dilution and a DMSO control are further diluted 1:200 (e.g. 5 μl into 995 μl serum-free growth media). The media is removed and 50 μl compound dilution or control in serum-free media is added to triplicate wells containing cells, providing 30 μM compound at the maximum concentration. The cells are treated for 30 minutes at room temperature. The treatment is then removed and the cells are incubated with lysis buffer containing phosphatase inhibitors for 10 minutes at room temperature. […] The biotinylated antibody binds to the streptavidin-coated donor beads and the phopsho-ERK1/2 antibody binds to the acceptor beads. Plates are read on an EnVision reader (Perkin Elmer) and excitation of the beads at 680 nm with a laser induces the release of singlet oxygen molecules from the donor beads that trigger energy transfer to the acceptor beads in close proximity, producing a signal that can be measured at 570 nm. Both antibodies bind to phosphorylated ERK proteins, bringing the donor and acceptor beads into close proximity.
as §3
In assay [5] the test system is ERK phosphorylation in WiDr cells (B-RAF^V600E). Put plainly: WiDr AlphaScreen SureFire pERK1/2 cellular assay. It counts as cell-based. The settings on record: Homo sapiens.
Method: The human WiDr colorectal cell line endogenously expresses the B-RAF^V600E mutation, which leads to constitutive activation of the MAP kinase pathway and phosphorylation of ERK in the absence of ligands.
On day 2, compounds at a concentration of 6 mM are serially diluted 10 μl into 90 μl of 100% dimethyl sulfoxide (DMSO) six times in 96-well plates for a total of 7 dilution points. Each dilution and a DMSO control are further diluted 1:200 (e.g. 5 μl into 995 μl minimum essential medium+0.1% fetal bovine serum). The media is removed and 100 μl compound dilution or control in minimum essential medium+0.1% fetal bovine serum is added to triplicate wells containing cells, providing 30 μM compound at the maximum concentration. The cells are treated for 1 hour or 24 hours at 37° C. The treatment is then removed and the cells are incubated with lysis buffer containing phosphatase inhibitors for 10 minutes at room temperature. […] The biotinylated antibody binds to the streptavidin-coated donor beads and the phopsho-ERK1/2 antibody binds to the acceptor beads. Plates are read on an EnVision reader (Perkin Elmer) and excitation of the beads at 680 nm with a laser induces the release of singlet oxygen molecules from the donor beads that triggers energy transfer to the acceptor beads in close proximity, producing a signal that can be measured at 570 nm. Both antibodies bind to phosphorylated ERK proteins, bringing the donor and acceptor beads into close proximity.
as §3
[6] abbreviates: IC50 category, read-out: CRAF binding affinity.
The mark [7] stands for this setting: IC50 category, read-out: BRAF^V600E binding affinity.
Where [8] appears, read: read-out: CRAF binding affinity IC50.
Where [9] appears, read: read-out: BRAF^V600E binding affinity IC50.
The mark [10] stands for this setting: read-out: A375 pERK inhibition IC50.
Where [11] appears, read: read-out: A375 pERK inhibition category.
Where [12] appears, read: 1 hr treatment, read-out: WiDr pERK inhibition category 1 hr.
Setting [13] is: 24 hrs treatment, read-out: WiDr pERK inhibition category 24 hrs.

Entries after “also recorded” stand apart in the source; their conditions may differ. Read-outs that look alike come from different tables or passages of the source.

Sequence of C-RAF Y340D/Y341D kinase (P04049 306-648 Y340D/Y341D): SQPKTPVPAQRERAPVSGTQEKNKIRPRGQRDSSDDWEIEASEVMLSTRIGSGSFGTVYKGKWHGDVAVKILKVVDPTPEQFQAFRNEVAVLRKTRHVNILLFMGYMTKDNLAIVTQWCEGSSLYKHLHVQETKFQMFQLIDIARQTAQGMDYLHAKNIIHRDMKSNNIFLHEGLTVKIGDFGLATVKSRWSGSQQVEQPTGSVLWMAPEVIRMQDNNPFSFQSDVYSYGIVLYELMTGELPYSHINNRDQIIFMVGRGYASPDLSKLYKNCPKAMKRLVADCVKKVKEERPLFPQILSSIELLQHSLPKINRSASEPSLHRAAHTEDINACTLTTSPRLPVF

Regarding `O=C1CCc2c(Oc3ccc4c(c3)CC(c3ncc(-c5cccnc5)[nH]3)CO4)ccnc2N1` (stereo not drawn) [Example 11, 5-[3-[5-(3-pyridyl)-1H-imidazol-2-yl]chroman-6-yl]oxy-3,4-dihydro-1H-1,8-naphthyridin-2-one], the IC50 in assay [1] (setting [6]) and in assay [2] (setting [7]) was below 4 nM in each case.

Regarding `O=C1CCc2c(Oc3ccc4c(c3)CC(c3nc5ccccc5[nH]3)CO4)ccnc2N1` (stereo not drawn) [Example 1, 5-[3-(1H-benzimidazol-2-yl)chroman-6-yl]oxy-3,4-dihydro-1H-1,8-naphthyridin-2-one], the IC50 in assay [1] (setting [6]) and in assay [2] (setting [7]) was below 4 nM throughout.

For the molecule `O=C1CCc2c(Oc3ccc4c(c3)CC(c3nc(-c5ccsc5)c[nH]3)CO4)ccnc2N1` (stereo not drawn) [Example 6, 5-[3-[4-(3-thienyl)-1H-imidazol-2-yl]chroman-6-yl]oxy-3,4-dihydro-1H-1,8-naphthyridin-2-one], the IC50 in assay [1] (setting [6]) was below 4 nM; in assay [1] (setting [8]) it was 0.4 nM; in assay [2] (setting [7]), below 4 nM; in assay [2] (setting [9]), 1 nM; in assay [4] (setting [10]), 23.4 nM; in assay [4] (setting [11]) it was below 70 nM. Also, the “paradoxical activation of MAPK pathway (ERK phosphorylation)” value (from here on “paradoxical activation of MAPK pathway”) in assay [3] is “reduced paradoxical activity”.

In the case of `O=C1CCc2c(Oc3ccc4c(c3)CC(c3nc5cccc(Cl)c5[nH]3)CO4)ccnc2N1` (stereo not drawn) [Example 2, 5-[3-(7-chloro-1H-benzimidazol-2-yl)chroman-6-yl]oxy-3,4-dihydro-1H-1,8-naphthyridin-2-one], the IC50 is 4 to 100 nM in assay [1] (setting [6]), 4 to 100 nM in assay [2] (setting [7]) and 70 to 300 nM in assay [4] (setting [11]).

As for `O=C1CCc2c(Oc3ccc4c(c3)CC(c3cc(-c5ccccc5)[nH]n3)CO4)ccnc2N1` (stereo not drawn) [Example 18, 5-[3-(5-phenyl-1H-pyrazol-3-yl)chroman-6-yl]oxy-3,4-dihydro-1H-1,8-naphthyridin-2-one], the IC50 was below 4 nM in assay [1] (setting [6]), below 4 nM in assay [2] (setting [7]) and above 300 nM in assay [4] (setting [11]). Besides, in assay [3], the “paradoxical activation of MAPK pathway” value is “reduced paradoxical activity”.

On to `O=C1CCc2c(Oc3ccc4c(c3)O[C@@H](c3nc(-c5ccccc5)c[nH]3)CO4)ccnc2N1` [Example 19, 5-[[(3S)-3-(4-phenyl-1H-imidazol-2-yl)-2,3-dihydro-1,4-benzodioxin-6-yl]oxy]-3,4-dihydro-1H-1,8-naphthyridin-2-one], for which the IC50 is below 4 nM in assay [1] (setting [6]); below 4 nM in assay [2] (setting [7]); 70 to 300 nM in assay [5] (setting [12]); above 300 nM in assay [5] (setting [13]); 155 nM in assay [4] (setting [10]); 70 to 300 nM in assay [4] (setting [11]). Also, in assay [3], the “paradoxical activation of MAPK pathway” value is “reduced paradoxical activity”.

In the case of `CS(=O)(=O)c1ccc(-c2cnc(C3COc4ccc(Oc5ccnc6c5CCC(=O)N6)cc4C3)[nH]2)cc1` (stereo not drawn) [Example 12, 5-[3-[5-(4-methylsulfonylphenyl)-1H-imidazol-2-yl]chroman-6-yl]oxy-3,4-dihydro-1H-1,8-naphthyridin-2-one], the IC50 in assay [1] (setting [6]) was 4 to 100 nM; in assay [2] (setting [7]) it was above 100 nM.

Take `O=C1CCc2c(Oc3ccc4c(c3)O[C@H](c3nc(-c5ccccc5)c[nH]3)CO4)ccnc2N1` [Example 20, 5-[[(3R)-3-(4-phenyl-1H-imidazol-2-yl)-2,3-dihydro-1,4-benzodioxin-6-yl]oxy]-3,4-dihydro-1H-1,8-naphthyridin-2-one]: the IC50 in assay [1] (setting [6]) was below 4 nM; in assay [2] (setting [7]), below 4 nM; in assay [5] (setting [12]) it was 70 to 300 nM; in assay [5] (setting [13]) it was above 300 nM; in assay [4] (setting [10]) it was 282 nM; in assay [4] (setting [11]) it was 70 to 300 nM. Besides, the “paradoxical activation of MAPK pathway” value in assay [3] is on record as “reduced paradoxical activity”.

`O=C1CCc2c(Oc3ccc4c(c3)CC(c3nc(-c5coc6ccccc56)c[nH]3)CO4)ccnc2N1` (stereo not drawn) [Example 10, 5-[3-[4-(benzofuran-3-yl)-1H-imidazol-2-yl]chroman-6-yl]oxy-3,4-dihydro-1H-1,8-naphthyridin-2-one]: the IC50 in assay [1] (setting [6]) and in assay [2] (setting [7]) was below 4 nM throughout.

In the case of `O=C1CCc2c(Oc3ccc4c(c3)CC(c3ncc(-c5ccc(F)cc5)[nH]3)CO4)ccnc2N1` (stereo not drawn) [Example 13, 5-[3-[5-(4-fluorophenyl)-1H-imidazol-2-yl]chroman-6-yl]oxy-3,4-dihydro-1H-1,8-naphthyridin-2-one], the IC50 in assay [1] (setting [6]) and in assay [2] (setting [7]) was below 4 nM each time.

Turning to `O=C1CCc2c(Oc3ccc4c(c3)CC(c3ncc(-c5cccc(Cl)c5)[nH]3)CO4)ccnc2N1` (stereo not drawn) [Example 9, 5-[3-[5-(3-chlorophenyl)-1H-imidazol-2-yl]chroman-6-yl]oxy-3,4-dihydro-1H-1,8-naphthyridin-2-one], the IC50 in assay [1] (setting [6]) and in assay [2] (setting [7]) was below 4 nM each time.

For the molecule `CC(C)(C)c1c[nH]c(C2COc3ccc(Oc4ccnc5c4CCC(=O)N5)cc3C2)n1` (stereo not drawn) [Example 5, 5-[3-(4-tert-butyl-1H-imidazol-2-yl)chroman-6-yl]oxy-3,4-dihydro-1H-1,8-naphthyridin-2-one], the results for the IC50 in assay [1] (setting [6]) and in assay [2] (setting [7]) were below 4 nM and 4 to 100 nM, respectively.

On to `O=C1CCc2c(Oc3ccc4c(c3)CC(c3nc(-c5ccccc5)c[nH]3)CO4)ccnc2N1` (stereo not drawn) [Example 3, 5-[3-(4-phenyl-1H-imidazol-2-yl)chroman-6-yl]oxy-3,4-dihydro-1H-1,8-naphthyridin-2-one], for which the “paradoxical activation of MAPK pathway” value in assay [3] is on record as “reduced paradoxical activation of MAPK pathway in comparison to Dabrafenib; also recorded: reduced paradoxical activity”.

As to `O=C1CCc2c(Oc3ccc4c(c3)CC(c3ncc(-c5ccc6c(c5)OCCO6)[nH]3)CO4)ccnc2N1` (stereo not drawn) [Example 15, 5-[3-[5-(2,3-dihydro-1,4-benzodioxin-6-yl)-1H-imidazol-2-yl]chroman-6-yl]oxy-3,4-dihydro-1H-1,8-naphthyridin-2-one], the values for the IC50 in assay [1] (setting [6]) and in assay [2] (setting [7]) were below 4 nM and 4 to 100 nM, respectively.

On to `O=C1CCc2c(Oc3ccc4c(c3)CC(c3nc(-c5ccncc5)c[nH]3)CO4)ccnc2N1` (stereo not drawn) [Example 4, 5-[3-[4-(4-pyridyl)-1H-imidazol-2-yl]chroman-6-yl]oxy-3,4-dihydro-1H-1,8-naphthyridin-2-one], for which the figures for the IC50 in assay [1] (setting [6]), in assay [2] (setting [7]) and in assay [4] (setting [11]) were below 4 nM, below 4 nM and above 300 nM, respectively. For the same molecule, the “paradoxical activation of MAPK pathway” value in assay [3] is reported as “reduced paradoxical activity”.

As for `O=C1CCc2c(Oc3ccc4c(c3)C=C(c3nc(-c5ccccc5)c[nH]3)CO4)ccnc2N1` [Example 16, 5-[[3-(4-phenyl-1H-imidazol-2-yl)-2H-chromen-6-yl]oxy]-3,4-dihydro-1H-1,8-naphthyridin-2-one], the IC50 in assay [1] (setting [6]) is below 4 nM; in assay [2] (setting [7]), 4 to 100 nM; in assay [4] (setting [11]), above 300 nM.

On to `O=C1CCc2c(Oc3ccc4c(c3)CC(c3nc(-c5cccs5)c[nH]3)CO4)ccnc2N1` (stereo not drawn) [Example 7, 5-[3-[4-(2-thienyl)-1H-imidazol-2-yl]chroman-6-yl]oxy-3,4-dihydro-1H-1,8-naphthyridin-2-one], for which the IC50 was below 4 nM in assay [1] (setting [6]); 0.5 nM in assay [1] (setting [8]); below 4 nM in assay [2] (setting [7]); 1.1 nM in assay [2] (setting [9]); below 70 nM in assay [4] (setting [11]). In addition, the “paradoxical activation of MAPK pathway” value in assay [3] is recorded as “reduced paradoxical activity”.

For `O=C1CCc2c(Oc3ccc4c(c3)CC(c3nc(-c5ccccc5)no3)CO4)ccnc2N1` (stereo not drawn) [Example 17, 5-[3-(3-phenyl-1,2,4-oxadiazol-5-yl)chroman-6-yl]oxy-3,4-dihydro-1H-1,8-naphthyridin-2-one], the IC50 in assay [1] (setting [6]) and in assay [2] (setting [7]) was 4 to 100 nM each time.

As to `O=C1CCc2c(Oc3ccc4c(c3)CC(c3ncc(-c5ccccc5Cl)[nH]3)CO4)ccnc2N1` (stereo not drawn) [Example 8, 5-[3-[5-(2-chlorophenyl)-1H-imidazol-2-yl]chroman-6-yl]oxy-3,4-dihydro-1H-1,8-naphthyridin-2-one], the IC50 in assay [1] (setting [6]) and in assay [2] (setting [7]) was below 4 nM throughout.

For `Cc1cc(Oc2ccc3c(c2)CC(c2ncc(-c4ccccc4)[nH]2)CO3)ccn1` (stereo not drawn) [Example 21, 2-Methyl-4-[3-(5-phenyl-1H-imidazol-2-yl)chroman-6-yl]oxy-pyridine], the IC50 in assay [1] (setting [6]) and in assay [2] (setting [7]) was 4 to 100 nM throughout.

With `O=C1CCc2c(Oc3ccc4c(c3)CC(c3ncc(-c5ccc6c(c5)OCO6)[nH]3)CO4)ccnc2N1` (stereo not drawn) [Example 14, 5-[3-[5-(1,3-benzodioxol-5-yl)-1H-imidazol-2-yl]chroman-6-yl]oxy-3,4-dihydro-1H-1,8-naphthyridin-2-one], the IC50 in assay [1] (setting [6]) and in assay [2] (setting [7]) was below 4 nM each time.
